The values that follow come from US20130317092A1 (priority 2007, published 2013).

One assay deals with ASF/SF2. As to the kind of experiment: Splicing factor ASF/SF2 in human PBMC (real-time RT-PCR). Format: cell-based. On the technique in general: In qPCR the cycle at which signal appears reflects the starting amount.
The next assay concerns CD54 and CD40. To be noted: cited from earlier work.
The test system of the next assay is AChmiRNA. As to the kind of experiment: AChmiRNA expression in human PBMC (quantitative RT-PCR). The class given is cell-based.
In another assay the test system is BDP1. The assay can be described thus: BDP1 transcript in human PBMC (real-time RT-PCR). Format: cell-based.
The test system of the next assay is macrophage miRNAs. As to the kind of experiment: Spotted microarray miRNA profile of primary human macrophages. Format: cell-based. From the text:
Macrophages were isolated from buffy coats from healthy donors, underwent pooling that elicited mixed leukocyte response (MLR) and subjected in vitro to several distinct agents or combinations thereof, some known to elicit macrophage activation (listed in Table 2, hereinbelow).
The mirVana (Ambion, Austin, Tex.) oligonucleotide set was used to construct the in-house array. The microarray carried 200 spotted probes complementary to known human and mouse miRNAs. To compose the array, the mirVana probeset was dissolved in 3×SSC to a final concentration of […], and printed on Ultragaps slides (Corning, Corning, N.Y.), using the MicroGrid spotter (Genomic Solutions, Holliston, Mass.). The array layout contained 12 subgrids, each composed of 11 rows and 12 columns. Each oligonucleotide was spotted 6 times on the array. The experiments were designed for comparison of two samples. Data was therefore always relative rather than absolute. In these experiments, a “reference design” (Churchill, 2002, Nature genetics, 32, 490-495) was used, in which RNA from cells or tissues is compared. In addition, dye-swapping tests were performed, aimed to exclude dye-specific labeling differences (Dombkowski et al., 2004, FEBS Lett, 560, 120-124). Labeling was performed using the CyDye reactive dye pack (Amersham, NSW, Australia), as instructed. Pre-hybridization was in pre-heated S×SSC, 1% BSA, 0.1% SDS solution, at 42° C. for 45 min. Cy3 and Cy5-labeled fragmented RNA (3 ug each) were added to the hybridization solution (3×SSC, 0.1% SDS, 10 μg polyA, 20 μg tRNA), heated at 95° C. for 4 minutes for eliminating secondary structures and applied to the slides in hybridization chambers (Corning, N.Y., USA) for 15 h at 64° C. Hybridized slides were successively washed in: 1×SSC, 0.1% SDS (5 min); 0.1×SSC, 0.1% SDS (5 min) and 0.1×SSC (3×1.5 min) and were dried by centrifugation (˜1000 g).
This was adapted from (Ben-Ari S, et al., J. Neurochem. 2006 April; 97 Suppl 1:24-34.) Briefly, an Affymetrix 428 Array Scanner was used at the maximum gain setting, at the wavelengths of 532 nm and 650 nm Scans were controlled by the “Jaguar” software (Affymetrix, Calif., USA), saved as TIFF files and exported to the “Imagene” program (Biodiscovery Inc, CA, USA) to define the spots, convert the intensity signals into numbers and calculate quality parameters such as “shape regularity”, “empty spot” etc. Data normalization, exclusion of unreliable spots and combining the information from all 4 slides were performed in an in-house Matlab program. First, median background was subtracted from the median signal intensity, to normalize background noises. Background area was defined as a circle of 5 pixels diameter separated from the signal area by 4 pixels. […]. Spot quality was examined according to pre-defined Imagene's parameters, standard deviation of pixels intensity in each spot etc. Spots with intensities below the threshold derived from the negative control spots or with saturated pixel values were excluded. The Cy3 and Cy5 signal intensities of each spot were normalized to the mean Cy3 and Cy5 intensities in the slide. For each spot, an initial Cy3/Cy5 ratio has been calculated, and was transformed to a log 2 basis. This value was designated LR (log 2 ratio). […]. Then, results from all valid spots (up to 6) representing the same oligonucleotide were combined. Probes with less than 3 valid spots were excluded, and median and mean LR were calculated.
Covariance between treatments was calculated in OpenOffice 1.1 for Mac OS X, using the entire miRNA collection represented on the chip (for signals that failed the MatLab analysis, a Median LR value of 0 was assigned).
The mirVana oligo set (Ambion, Austin, Tex.; Catalog number 1564V1) was used to construct our in-house array with >200 spotted probes complementary to known human and mouse miRs. […]

For another assay, the system named is TBP. The assay can be described thus: TBP transcript in human PBMC (real-time RT-PCR). Format: cell-based.

On to CpG ODN 2006, for which the “splicing factor ASF/SF2 levels” value in the assay on ASF/SF2 is given as “reduced levels”. Further, in the assay on CD54 and CD40, the “expression of CD54 and CD40” value was “enhanced expression of CD54 and CD40”. Also, the AChmiRNA expression entry in the assay on AChmiRNA is “suppressed”. Moreover, the BDP1 transcript result in the assay with BDP1 was “suppressed”. The “similarity of effects on the miRNA profile (covariance)” value in the assay on macrophage miRNAs was “invoke the closest effects on the miRNA profile”. Besides, the “miR-132 expression (spotted microarray)” value in the assay with macrophage miRNAs (24 h, 1 μg/ml LPS or ODN 2006 1 uM) was “consistently being up-regulated”. Further, in the assay on macrophage miRNAs (LPS 1 μg/ml, CpG 1 μM, EN101 1 μM), the “extent of change in miRNA expression (miRNAs beyond median LR=0.25)” value is reported as “caused the greatest change”. Besides, in the assay on macrophage miRNAs (spotted array), the miR-17-5p expression result was “down-regulated by CpG alone”; the “miR-30a-3p and miR-372 expression” value is “consistently down-regulated”; the miRNAs down-regulated result was “miR-9-1*, 26a-1, 27a, 33, 93, 140, 145, 185, 221, and 298”; the miRNAs up-regulated entry is “miR-183, 292-3p, 302c, 361, and 381”. Also, in the assay with TBP, the TBP transcript result is given as “suppressed”.
